Data on 23 molecules can be found in PubChem BioAssay AID330 (DTP/NCI, 2004).

For the assay, the system named is P388 leukemia ip, CD2F1 mice, survival T/C. Description: NCI In Vivo Anticancer Drug Screen. Data for tumor model P388 Leukemia (intraperitoneal) in CD2F1 (CDF1) mice. The settings on record: endpoint: median survival time, higher = longer survival. The method in brief:
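Mice carrying the transplanted tumor received test compound or vehicle. Survival was recorded in each group, and the value is the treated-group measurement divided by that of the vehicle-treated control group.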

[1] abbreviates: dose: 50.0 mg/kg/injection, schedule: Q01DX005 (ip), vehicle: saline with Tween-80.
[2] abbreviates: dose: 100.0 mg/kg/injection, schedule: Q01DX005 (ip), vehicle: saline with Tween-80.
Setting [3] is: dose: 200.0 mg/kg/injection, schedule: Q01DX005 (ip), vehicle: saline with Tween-80.
Setting [4] is: dose: 50.0 mg/kg/injection, schedule: Q01DX005 (ip), vehicle: Klucel (hydroxypropylcellulose) (HPC).
[5] abbreviates: dose: 100.0 mg/kg/injection, schedule: Q01DX005 (ip), vehicle: Klucel (hydroxypropylcellulose) (HPC).
The mark [6] stands for this setting: dose: 200.0 mg/kg/injection, schedule: Q01DX005 (ip), vehicle: Klucel (hydroxypropylcellulose) (HPC).
The mark [7] stands for this setting: dose: 50.0 mg/kg/injection, schedule: Q01DX009 (ip), vehicle: Klucel (hydroxypropylcellulose) (HPC).
Where [8] appears, read: dose: 100.0 mg/kg/injection, schedule: Q01DX009 (ip), vehicle: Klucel (hydroxypropylcellulose) (HPC).
[9] abbreviates: dose: 200.0 mg/kg/injection, schedule: Q01DX009 (ip), vehicle: Klucel (hydroxypropylcellulose) (HPC).

Values joined by “and” are separate entries in the source; they are usually repeats but may differ in a detail not shown here. Equal entries are not always repeated. Toxic doses and inconclusive results are not listed.

Consider `Cc1cc2c(c3c1C(=O)CC3)C(C)(C)CCC2(C)C`, for which the T/C under setting [1] was 99 % of control, the T/C under setting [2] was 97 % of control and the T/C under setting [3] is 95 % of control.
Take `O=C(O)c1ccccc1-c1c2ccc(=Nc3ccccc3)cc-2oc2cc(Nc3ccc(S(=O)(=O)O)cc3)ccc12`: the T/C reads like this: (dose: 50.0 mg/kg/injection, schedule: Q01DX005 (ip), vehicle: saline) 94 % of control; (dose: 100.0 mg/kg/injection, schedule: Q01DX005 (ip), vehicle: saline) 98 % of control; (dose: 200.0 mg/kg/injection, schedule: Q01DX005 (ip), vehicle: saline) 111 % of control.
Regarding `CC1(C)CC(=O)CC(C(Cl)(Cl)Cl)O1` (centres undefined), the T/C by setting is: under setting [1], 99 % of control; under setting [2], 100 % of control; under setting [3], 98 % of control.
As to `O=C1C(c2ccccn2)=C(O)c2ccccc21`, the T/C is, setting by setting: under setting [4], 104 % of control; under setting [5], 93 % of control; under setting [6], 97 % of control.
As for `CCC1(C(C)C)NC(=O)NC1=O` (centres undefined), the T/C runs as follows: under setting [4], 106 % of control; under setting [5], 104 % of control; under setting [6], 106 % of control.
For `CC1(C)CCSC(/C=C/c2ccccc2)=N1`, the T/C (dose: 100.0 mg/kg/injection, schedule: Q01DX009 (ip), vehicle: other) was 109 % of control; the T/C (dose: 200.0 mg/kg/injection, schedule: Q01DX009 (ip), vehicle: other) is 115 % of control; the T/C (dose: 400.0 mg/kg/injection, schedule: Q01DX009 (ip), vehicle: other) was 108 % of control.
Regarding `COc1ccc(C(C)c2cc3c(cc2OC)OCO3)cc1` (centres undefined), the T/C runs as follows: (dose: 12.5 mg/kg/injection, schedule: Q01DX005 (ip), vehicle: saline with Tween-80) 101 % of control and 109 % of control and 95 % of control; (dose: 25.0 mg/kg/injection, schedule: Q01DX005 (ip), vehicle: saline + alcohol) 92 % of control; (dose: 50.0 mg/kg/injection, schedule: Q01DX005 (ip), vehicle: saline + alcohol) 91 % of control; (dose: 100.0 mg/kg/injection, schedule: Q01DX005 (ip), vehicle: saline + alcohol) 93 % of control; (dose: 200.0 mg/kg/injection, schedule: Q01DX005 (ip), vehicle: saline + alcohol) 106 % of control.
As to `CC(C)CC(NC(=O)C(Cc1ccccc1)NC(=O)CNC(=O)C(C)NC(=O)C(N)Cc1ccc(O)cc1)C(=O)O` (centres undefined), the T/C was 93 % of control under setting [1], 109 % of control under setting [2] and 91 % of control under setting [3].
On to `CC(=O)OC1CC(C(C)C2CC(C)=C(C)C(=O)O2)C2(C)CCC3C(CC4OC45C(O)C=CC(=O)C35C)C12O` (centres undefined), for which the T/C was 108 % of control (dose: 7.5 mg/kg/injection, schedule: Q01DX005 (ip), vehicle: Klucel (hydroxypropylcellulose) (HPC)); 105 % of control (dose: 15.0 mg/kg/injection, schedule: Q01DX005 (ip), vehicle: Klucel (hydroxypropylcellulose) (HPC)); 101 % of control (dose: 30.0 mg/kg/injection, schedule: Q01DX005 (ip), vehicle: Klucel (hydroxypropylcellulose) (HPC)).
Take `COCNC(=O)N=C1N(COC)COCN1COC`: the T/C (dose: 100.0 mg/kg/injection, schedule: Q01DX001 (ip), vehicle: saline with Tween-80) was 109 % of control; the T/C (dose: 200.0 mg/kg/injection, schedule: Q01DX001 (ip), vehicle: saline with Tween-80) is 106 % of control; the T/C (dose: 400.0 mg/kg/injection, schedule: Q01DX001 (ip), vehicle: saline with Tween-80) is 100 % of control.
Regarding `c1ccc2c(c1)cnc1c3ccccc3nn21`, the T/C is, setting by setting: under setting [7], 102 % of control; under setting [8], 96 % of control; under setting [9], 103 % of control.
For `C=CCOc1cc2c(cc1C(C)c1ccc(F)cc1)OCO2` (centres undefined), the T/C by setting is: under setting [1], 100 % of control; under setting [2], 104 % of control; under setting [3], 100 % of control.
With `CC(C)(O)C1CC(=O)C(C)(C2C(O)CC3(C)C4CC=C5C(CCC(O)C5(C)C)C4(C)C(=O)CC23C)O1` (centres undefined), the T/C is 113 % of control (dose: 9.63 mg/kg/injection, schedule: Q01DX005 (ip), vehicle: saline + alcohol); 102 % of control (dose: 19.25 mg/kg/injection, schedule: Q01DX005 (ip), vehicle: saline + alcohol); 102 % of control (dose: 38.5 mg/kg/injection, schedule: Q01DX005 (ip), vehicle: saline + alcohol); 97 % of control (dose: 77.0 mg/kg/injection, schedule: Q01DX005 (ip), vehicle: saline + alcohol).
In the case of `C[C@@H]1CC2=CC(=O)CC[C@]2(C)[C@H]2CC[C@]3(C)[C@@H](O)CC[C@H]3[C@H]12`, the T/C is 90 % of control (dose: 100.0 mg/kg/injection, schedule: Q01DX009 (ip), vehicle: saline with Tween-80) and 90 % of control (dose: 200.0 mg/kg/injection, schedule: Q01DX009 (ip), vehicle: saline with Tween-80).
For the molecule `O=c1c2cc(O)ccc2sc2c(CO)ccc(NCCN3CCCC3)c12`, the T/C runs as follows: (dose: 19.25 mg/kg/injection, schedule: Q01DX005 (ip), vehicle: Klucel (hydroxypropylcellulose) (HPC)) 101 % of control; (dose: 38.5 mg/kg/injection, schedule: Q01DX005 (ip), vehicle: Klucel (hydroxypropylcellulose) (HPC)) 100 % of control; (dose: 77.0 mg/kg/injection, schedule: Q01DX005 (ip), vehicle: Klucel (hydroxypropylcellulose) (HPC)) 106 % of control; (dose: 154.0 mg/kg/injection, schedule: Q01DX005 (ip), vehicle: Klucel (hydroxypropylcellulose) (HPC)) 109 % of control.
On to `CC(=O)Oc1ccc2c(c1)C(=O)CCCCCCC(=O)O2`, for which the T/C runs as follows: (dose: 100.0 mg/kg/injection, schedule: Q01DX001 (ip), vehicle: saline) 101 % of control; (dose: 200.0 mg/kg/injection, schedule: Q01DX001 (ip), vehicle: saline) 95 % of control; (dose: 400.0 mg/kg/injection, schedule: Q01DX001 (ip), vehicle: saline) 105 % of control.
As to `CCOc1ccccc1/C=C1\CCc2ccccc2C1=O`, the T/C by setting is: under setting [7], 100 % of control; under setting [8], 100 % of control; under setting [9], 102 % of control.
For the molecule `N#CCCSC(=S)C(C#N)C(=N)c1ccccc1` (centres undefined), the T/C is, setting by setting: (dose: 25.0 mg/kg/injection, schedule: Q04DX003 (ip), vehicle: Klucel (hydroxypropylcellulose) (HPC)) 108 % of control; (dose: 50.0 mg/kg/injection, schedule: Q04DX003 (ip), vehicle: Klucel (hydroxypropylcellulose) (HPC)) 110 % of control; (dose: 100.0 mg/kg/injection, schedule: Q04DX003 (ip), vehicle: Klucel (hydroxypropylcellulose) (HPC)) 104 % of control and 92 % of control; (dose: 200.0 mg/kg/injection, schedule: Q04DX003 (ip), vehicle: Klucel (hydroxypropylcellulose) (HPC)) 92 % of control; (dose: 400.0 mg/kg/injection, schedule: Q04DX003 (ip), vehicle: Klucel (hydroxypropylcellulose) (HPC)) 96 % of control.
As for `C/C=C/C=c1/[nH]c(=O)/c(=C\c2ccccc2)[nH]c1=O`, the T/C by setting is: under setting [7], 104 % of control; under setting [8], 104 % of control; under setting [9], 103 % of control.
Consider `Nc1cccc(CCCCc2ccccc2)c1`, for which the T/C (dose: 100.0 mg/kg/injection, schedule: Q04DX002 (ip), vehicle: saline) was 103 % of control and the T/C (dose: 200.0 mg/kg/injection, schedule: Q04DX002 (ip), vehicle: saline) was 110 % of control.
With `CCN(CCO)C(=O)Nc1ccc(Cl)cc1`, the T/C was 99 % of control (dose: 60.0 mg/kg/injection, schedule: Q01DX005 (ip), vehicle: Klucel + Tween-80); 101 % of control (dose: 120.0 mg/kg/injection, schedule: Q01DX005 (ip), vehicle: Klucel + Tween-80); 100 % of control (dose: 240.0 mg/kg/injection, schedule: Q01DX005 (ip), vehicle: Klucel + Tween-80).
On to `c1ccc(C(Nc2nncs2)Nc2nncs2)cc1`, for which the T/C is 99 % of control (dose: 30.0 mg/kg/injection, schedule: Q01DX005 (ip), vehicle: saline with Tween-80); 100 % of control and 112 % of control (dose: 60.0 mg/kg/injection, schedule: Q01DX005 (ip), vehicle: saline with Tween-80); 117 % of control (dose: 120.0 mg/kg/injection, schedule: Q01DX005 (ip), vehicle: saline with Tween-80); 157 % of control and 164 % of control (dose: 240.0 mg/kg/injection, schedule: Q01DX005 (ip), vehicle: saline with Tween-80).
Turning to `CCc1nc(N)nc(N)c1-c1ccc([N+](C)(C)C)cc1`, the T/C by setting is: (dose: 6.25 mg/kg/injection, schedule: Q01DX005 (ip), vehicle: Klucel (hydroxypropylcellulose) (HPC)) 101 % of control; (dose: 12.5 mg/kg/injection, schedule: Q01DX005 (ip), vehicle: Klucel (hydroxypropylcellulose) (HPC)) 101 % of control; (dose: 25.0 mg/kg/injection, schedule: Q01DX005 (ip), vehicle: Klucel (hydroxypropylcellulose) (HPC)) 103 % of control.
